Experimental data as given in patent publication US20100137327A1, “NOVEL SEM[…] CARBONYLHYDRAZIDE DERIVATIVES USEFUL AS POTASSIUM CHANNEL MODULATORS” (NeuroSearch A/S, priority 2007, published 2010).

Target: BK channels heterologously expressed in Xenopus laevis oocytes (Homo sapiens, UniProt Q12791)
Conditions: 30 μM compound added after stable current level, step from −40 mV (5 s) to +30 mV (1 s), repeated, FIG. 1
Method: The electrical current through the BK channel is measured conventional two-electrode voltage clamp. BK current is activated by repeated step protocols. In brief, this protocol goes from a resting membrane potential of −40 mV lasting for 5 s to a depolarised step to +30 mV lasting for 1 s. The protocol was repeated continuously.
Having reached a stable current level, Compound A (30 μM), was added.

Sequence of BK channels heterologously expressed in Xenopus laevis oocytes (Q12791 whole entry): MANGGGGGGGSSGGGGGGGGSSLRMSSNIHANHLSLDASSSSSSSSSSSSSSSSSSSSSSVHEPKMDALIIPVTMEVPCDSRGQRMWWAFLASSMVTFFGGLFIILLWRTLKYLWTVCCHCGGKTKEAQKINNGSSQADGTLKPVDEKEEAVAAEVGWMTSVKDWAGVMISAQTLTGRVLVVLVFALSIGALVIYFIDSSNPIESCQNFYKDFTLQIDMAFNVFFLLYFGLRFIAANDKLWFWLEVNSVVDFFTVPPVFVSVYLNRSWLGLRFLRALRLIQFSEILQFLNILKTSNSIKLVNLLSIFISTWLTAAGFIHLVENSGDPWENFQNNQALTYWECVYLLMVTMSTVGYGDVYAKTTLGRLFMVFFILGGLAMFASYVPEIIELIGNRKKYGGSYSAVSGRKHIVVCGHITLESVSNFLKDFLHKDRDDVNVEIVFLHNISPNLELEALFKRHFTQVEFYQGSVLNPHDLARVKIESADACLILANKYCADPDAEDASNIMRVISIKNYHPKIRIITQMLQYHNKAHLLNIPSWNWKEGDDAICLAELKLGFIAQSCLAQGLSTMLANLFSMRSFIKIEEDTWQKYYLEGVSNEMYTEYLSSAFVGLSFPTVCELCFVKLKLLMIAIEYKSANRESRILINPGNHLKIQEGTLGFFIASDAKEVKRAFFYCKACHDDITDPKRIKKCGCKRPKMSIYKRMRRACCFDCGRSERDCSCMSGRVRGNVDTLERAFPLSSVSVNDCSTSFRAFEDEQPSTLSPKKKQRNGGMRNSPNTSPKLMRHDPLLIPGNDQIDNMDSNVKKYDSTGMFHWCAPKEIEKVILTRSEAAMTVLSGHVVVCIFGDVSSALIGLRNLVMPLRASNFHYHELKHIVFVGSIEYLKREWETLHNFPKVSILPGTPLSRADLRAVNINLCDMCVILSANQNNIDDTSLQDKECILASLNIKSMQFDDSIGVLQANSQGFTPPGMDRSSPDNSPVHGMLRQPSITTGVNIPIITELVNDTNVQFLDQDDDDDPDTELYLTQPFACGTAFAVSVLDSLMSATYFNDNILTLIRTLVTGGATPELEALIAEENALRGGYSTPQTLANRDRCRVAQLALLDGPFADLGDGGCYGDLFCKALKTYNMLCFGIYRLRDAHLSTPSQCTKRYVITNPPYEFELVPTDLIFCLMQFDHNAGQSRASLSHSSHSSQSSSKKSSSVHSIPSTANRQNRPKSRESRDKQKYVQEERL

With `O=C(NNc1ccc(-c2ccc(C(F)(F)F)cc2)cc1-c1nnn[nH]1)c1cc(C(F)(F)F)cc(C(F)(F)F)c1` [Compound A, 3,5-Bis-trifluoromethyl-benzoic acid N40-[3-(1H-tetrazol-5-yl)-4′-trifluoromethyl-biphenyl-4-yl]-hydrazide] the “current activated by depolarisation (BK channel opening activity)” value was “marked increase”.
